The source of these data is patent publication US11897851B2, “Heterocyclic GLP-1 agonists” (Gasherbrum Bio, Inc., priority 2021, dated 2024).

The assay addresses T1, GLP-1 Receptor (Homo sapiens, UniProt P43220).
T1 construct: host or cells: HEK293/GLP1R/CRE-LUC (HEK293/CRE-Luc stably expressing the GLP-1 receptor)
The assay is described as follows: GLP-1R agonist cAMP stimulation assay (HEK293/GLP1R/CRE-LUC cells, Cisbio cAMP dynamic 2 kit).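 Also: compounds tested in half-log serial dilution, cAMP detected with cAMP-d2 and anti-cAMP cryptate antibody reagents after 1 h at room temperature.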 In kind it is cell-based. Conditions: HEK293/CRE-Luc cell line stably expressing the GLP-1 Receptor; 1000 cells/well; 30 min at 37° C.; 0.5 mM IBMX, 0.1% BSA; read-out: GLP1R cAMP Stimulation DR: EC50.

T1 sequence (P43220 24-463, species assumed): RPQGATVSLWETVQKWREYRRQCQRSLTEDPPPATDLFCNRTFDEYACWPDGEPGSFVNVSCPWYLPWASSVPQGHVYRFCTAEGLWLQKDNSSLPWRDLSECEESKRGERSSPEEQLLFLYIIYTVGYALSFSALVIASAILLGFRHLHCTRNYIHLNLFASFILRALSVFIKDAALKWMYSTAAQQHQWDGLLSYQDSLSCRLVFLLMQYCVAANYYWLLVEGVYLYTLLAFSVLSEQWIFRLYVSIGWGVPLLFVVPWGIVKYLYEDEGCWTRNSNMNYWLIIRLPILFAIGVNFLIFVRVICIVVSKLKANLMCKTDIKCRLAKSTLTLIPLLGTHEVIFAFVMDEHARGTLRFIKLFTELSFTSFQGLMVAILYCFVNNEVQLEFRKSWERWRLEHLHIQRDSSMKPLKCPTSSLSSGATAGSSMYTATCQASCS

On to `C/C(=C\c1cnc(CN2CCC(c3cccc4c3O[C@@](C)(c3ccc(Cl)cc3F)O4)CC2)n1C[C@@H]1CCO1)C(=O)O` (single isomer, unassigned) [Compound 131a], for which the EC50 (in general, the concentration that produces a half-maximal response) was 0.099 nM.
As for `C/C(=C\c1cnc(CN2CCC(c3cccc4c3O[C@](C)(c3ccc(Cl)cc3F)O4)CC2)n1C[C@@H]1CCO1)C(=O)O` (single isomer, unassigned) [Compound 131b], the EC50 stood at 8.7 nM.
To `CC1(C)C[C@@H](Cn2c(/C=C/C(=O)O)cnc2CN2CCC(c3cccc4c3OC(C)(c3ccc(Cl)cc3F)O4)CC2)CO1` (single isomer, unassigned) [Compound 171a] belongs 10 nM; to `C[C@]1(c2ccc(Cl)cc2F)Oc2cccc(C3CCN(Cc4ncc(/C=C/C(=O)O)n4C[C@@H]4CCS4(=O)=O)CC3)c2O1` (single isomer, unassigned) [Compound 173a], 0.0069 nM; to `C[C@]1(c2ccc(Cl)cc2F)Oc2cccc(C3CCN(Cc4ncc(/C=C/C(=O)O)n4C[C@H]4CCS4(=O)=O)CC3)c2O1` (single isomer, unassigned) [Compound 173b], 0.0014 nM.
To `Cn1c(C(=O)O)cnc1CN1CCC(c2cccc(OCc3ccc(Cl)cc3F)n2)CC1` [Compound 101, 2-((4-(6-((4-chloro-2-fluorobenzyl)oxy)pyridin-2-yl)piperidin-1-yl)methyl)-1-methyl-1H-imidazole-5-carboxylic acid] belongs 227 nM; to `O=C(O)CCc1cnc(CN2CCC(c3cccc(OCc4ccc(Cl)cc4F)n3)CC2)n1C[C@@H]1CCO1` [Compound 102a, (S)-3-(2-((4-(6-((4-chloro-2-fluorobenzyl)oxy)pyridin-2-yl)piperidin-1-yl)methyl)-1-(oxetan-2-ylmethyl)-1H-imidazol-5-yl)propanoic acid], 1.6 nM; to `O=C(O)/C=C/c1cnc(CN2CCC(c3cccc(OCc4ccc(Cl)cc4F)n3)CC2)n1C[C@@H]1CCO1` [Compound 103a, (S,E)-3-(2-((4-(6-((4-chloro-2-fluorobenzyl)oxy)pyridin-2-yl)piperidin-1-yl)methyl)-1-(oxetan-2-ylmethyl)-1H-imidazol-5-yl)acrylic acid], 0.093 nM.
To `Cn1c(/C=C/C(=O)O)cnc1CN1CCC(c2cccc(OCc3ccc(Cl)cc3F)n2)CC1` [Compound 104, (E)-3-(2-((4-(6-((4-chloro-2-fluorobenzyl)oxy)pyridin-2-yl)piperidin-1-yl)methyl)-1-methyl-1H-imidazol-5-yl)acrylic acid] belongs 3.45 nM.
As for `Cn1c(-c2nn[nH]n2)cnc1CN1CCC(c2cccc(OCc3ccc(Cl)cc3F)n2)CC1` [Compound 105, 2-((4-chloro-2-fluorobenzyl)oxy)-6-(1-((1-methyl-5-(2H-tetrazol-5-yl)-1H-imidazol-2-yl)methyl)piperidin-4-yl)pyridine], the EC50 was found to be 59.2 nM.
To `COCCn1c(/C=C/C(=O)O)cnc1CN1CCC(c2cccc(OCc3ccc(Cl)cc3F)n2)CC1` [Compound 106, (E)-3-(2-((4-(6-((4-Chloro-2-fluorobenzyl)oxy)pyridin-2-yl)piperidin-1-yl)methyl)-1-(2-methoxyethyl)-1H-imidazol-5-yl)acrylic acid] belongs 0.364 nM; to `O=C(O)CCc1cnc(CN2CCC(c3cccc(OCc4ccc(Cl)cc4F)n3)CC2)n1CC1CCC1` [Compound 107], 4.4 nM.
To `Cn1c(C2CC2C(=O)O)cnc1CN1CCC(c2cccc(OCc3ccc(Cl)cc3F)n2)CC1` (stereo not drawn) [Compound 108, 2-(2-((4-(6-((4-chloro-2-fluorobenzyl)oxy)pyridin-2-yl)piperidin-1-yl)methyl)-1-methyl-1H-imidazol-5-yl)cyclopropanecarboxylic acid] belongs 28.2 nM.
As to `Cn1c(/C=C\C(=O)O)cnc1CN1CCC(c2cccc(OCc3ccc(Cl)cc3F)n2)CC1` [Compound 109, (Z)-3-(2-((4-(6-((4-chloro-2-fluorobenzyl)oxy)pyridin-2-yl)piperidin-1-yl)methyl)-1-methyl-1H-imidazol-5-yl)acrylic acid], the EC50 came to 86.4 nM.
To `C/C(=C\c1cnc(CN2CCC(c3cccc(OCc4ccc(Cl)cc4F)n3)CC2)n1C)C(=O)O` [Compound 110, (E)-3-(2-((4-(6-((4-chloro-2-fluorobenzyl)oxy)pyridin-2-yl)piperidin-1-yl)methyl)-1-methyl-1H-imidazol-5-yl)-2-methylacrylic acid] belongs 5.5 nM.
The same measure for `Cn1c(/C=C/C(=O)O)nnc1CN1CCC(c2cccc(OCc3ccc(Cl)cc3F)n2)CC1` [Compound 112, (E)-3-(5-((4-(6-((4-chloro-2-fluorobenzyl)oxy)pyridin-2-yl)piperidin-1-yl)methyl)-4-methyl-4H-1,2,4-triazol-3-yl)acrylic acid]: 2.01 nM.
To `COCCn1c(C2CC2C(=O)O)cnc1CN1CCC(c2cccc(OCc3ccc(Cl)cc3F)n2)CC1` (stereo not drawn) [Compound 113] belongs 34.9 nM.
With `O=C(O)C1CC1c1cnc(CN2CCC(c3cccc(OCc4ccc(Cl)cc4F)n3)CC2)n1C[C@@H]1CCO1` (stereo partly drawn) [Compound 114a, 2-(2-((4-(6-((4-chloro-2-fluorobenzyl)oxy)pyridin-2-yl)piperidin-1-yl)methyl)-1-(((S)-oxetan-2-yl)methyl)-1H-imidazol-5-yl)cyclopropane-1-carboxylic acid], the EC50 worked out at 9.4 nM.
To `C/C(=C\c1cnc(CN2CCC(c3cccc4c3OC[C@@H](c3ccc(Cl)cc3)O4)CC2)n1C[C@@H]1CCO1)C(=O)O` [Compound 115a, (E)-3-(2-((4-((R)-2-(4-chlorophenyl)-2,3-dihydrobenzo[b][1,4]dioxin-5-yl)piperidin-1-yl)methyl)-1-(((S)-oxetan-2-yl)methyl)-1H-imidazol-5-yl)-2-methylacrylic acid] belongs 3.2 nM; to `O=C(O)/C=C/c1cnc(CN2CCC(c3cccc4c3OC[C@@H](c3ccc(Cl)cc3)O4)CC2)n1C[C@@H]1CCO1` [Compound 116a, (E)-3-(2-((4-((R)-2-(4-Chlorophenyl)-2,3-dihydrobenzo[b][1,4]dioxin-5-yl)piperidin-1-yl)methyl)-1-(((S)-oxetan-2-yl)methyl)-1H-imidazol-5-yl)acrylic acid], 0.71 nM; to `Cc1cc(CCC(=O)O)cnc1CN1CCC(c2cccc(OCc3ccc(Cl)cc3F)n2)CC1` [Compound 117], 3300 nM.
The same measure for `O=C(O)CCc1ccc(CN2CCC(c3cccc(OCc4ccc(Cl)cc4F)n3)CC2)nc1` [Compound 118, 3-(6-((4-(6-((4-chloro-2-fluorobenzyl)oxy)pyridin-2-yl)piperidin-1-yl)methyl)pyridin-3-yl)propanoic acid]: more than 1000 nM; for `O=C(O)COc1ccc(CN2CCC(c3cccc(OCc4ccc(Cl)cc4F)n3)CC2)nc1` [Compound 119, 2-((6-((4-(6-((4-chloro-2-fluorobenzyl)oxy)pyridin-2-yl)piperidin-1-yl)methyl)pyridin-3-yl)oxy)acetic acid]: 1500 nM; for `Cc1cc(/C=C/C(=O)O)cnc1CN1CCC(c2cccc(OCc3ccc(Cl)cc3F)n2)CC1` [Compound 120, (E)-3-(6-((4-(6-((4-chloro-2-fluorobenzyl)oxy)pyridin-2-yl)piperidin-1-yl)methyl)-5-methylpyridin-3-yl)acrylic acid]: 99 nM.
The same measure for `O=C(O)CCc1ccc(CN2CCC(c3cccc(OCc4ccc(Cl)cc4F)n3)CC2)c(=O)[nH]1` [Compound 121, 3-(5-((4-(6-((4-chloro-2-fluorobenzyl)oxy)pyridin-2-yl)piperidin-1-yl)methyl)-6-oxo-1,6-dihydropyridin-2-yl)propanoic acid]: more than 1000 nM; for `CC(C)(Oc1ccc(CN2CCC(c3cccc(OCc4ccc(Cl)cc4F)n3)CC2)nc1)C(=O)O` [Compound 122, 2-((6-((4-(6-((4-chloro-2-fluorobenzyl)oxy)pyridin-2-yl)piperidin-1-yl)methyl)pyridin-3-yl)oxy)-2-methylpropanoic acid]: more than 1000 nM.
In the case of `O=C(O)/C=C/c1ccc(CN2CCC(c3cccc(OCc4ccc(Cl)cc4F)n3)CC2)nc1` [Compound 123, (E)-3-(6-((4-(6-((4-chloro-2-fluorobenzyl)oxy)pyridin-2-yl)piperidin-1-yl)methyl)pyridin-3-yl)acrylic acid], the EC50 is 109 nM.
For the compound `COc1nc(CCC(=O)O)ccc1CN1CCC(c2cccc(OCc3ccc(Cl)cc3F)n2)CC1` [Compound 124, 3-(5-((4-(6-((4-Chloro-2-fluorobenzyl)oxy)pyridin-2-yl)piperidin-1-yl)methyl)-6-methoxypyridin-2-yl)propanoic acid], the EC50 was more than 1000 nM.
The same measure for `CC(Oc1ccc(CN2CCC(c3cccc(OCc4ccc(Cl)cc4F)n3)CC2)nc1)C(=O)O` (stereo not drawn) [Compound 125, 2-((6-((4-(6-((4-chloro-2-fluorobenzyl)oxy)pyridin-2-yl)piperidin-1-yl)methyl)pyridin-3-yl)oxy)propanoic acid]: more than 1000 nM; for `O=C(O)C1CC1c1ccc(CN2CCC(c3cccc(OCc4ccc(Cl)cc4F)n3)CC2)nc1` (stereo not drawn) [Compound 126, 2-(6-((4-(6-((4-chloro-2-fluorobenzyl)oxy)pyridin-2-yl)piperidin-1-yl)methyl)pyridin-3-yl)cyclopropane-1-carboxylic acid]: 817 nM.
To `Fc1cc(Cl)ccc1COc1cccc(C2CCN(Cc3ccc(-c4nn[nH]n4)cn3)CC2)n1` [Compound 127, 2-((4-(6-((4-chloro-2-fluorobenzyl)oxy)pyridin-2-yl)piperidin-1-yl)methyl)-5-(2H-tetrazol-5-yl)pyridine] belongs 147 nM.
To `O=C(O)/C=C/c1cnc(CN2CCC(c3cccc(OCc4ccc(Cl)cc4F)n3)CC2)c(CC2CCCO2)c1` (stereo not drawn) [Compound 128, (E)-3-(6-((4-(6-((4-chloro-2-fluorobenzyl)oxy)pyridin-2-yl)piperidin-1-yl)methyl)-5-((tetrahydrofuran-2-yl)methyl)pyridin-3-yl)acrylic acid] belongs 48.9 nM; to `Cc1cc(C(=O)O)cnc1CN1CCC(c2cccc(OCc3ccc(Cl)cc3F)n2)CC1` [Compound 129, 6-((4-(6-((4-chloro-2-fluorobenzyl)oxy)pyridin-2-yl)piperidin-1-yl)methyl)-5-methylnicotinic acid], 1500 nM.
